Data: patent US8293782B2, “Compound, probe containing the novel compound, and fluorescence-imaging contrast agent containing the novel compound or the probe” (Canon Kabushiki Kaisha, priority 2009, dated 2012)

Experiment: Fading evaluation in fetal bovine serum under interior light (680 LUX)
Type: physicochemical
Conditions: 5 μM in FBS, absorbance at maximum absorption wavelength after 24 hours
Protocol: The ordinate of FIG. 10 indicates log(At/A0) where A0 and At respectively represent absorbance at the maximum absorption wavelength after the lapse of 0 and t hours from the irradiation of the interior light. The fading rate in Table 1 is expressed by (A0-A24)/A0, that is, variation in absorbance at the maximum absorption wavelength after the lapse of 24 hours.

Fading rate (A0-A24)/A0: 4.5%
Substance: Alexa Fluor (trademark) 750 [Reagent 1]
